Test results as given in paper PMC12111648, “New Dimethoxyaryl-Sesquiterpene Derivatives with Cytotoxic Activity Against MCF-7 Breast Cancer Cells: From Synthesis to Topoisomerase I/II Inhibition and Cell Death Mechanism Studies” (International Journal of Molecular Sciences, 2025).
Entries after “also recorded” stand apart in the source; their conditions may differ.

Key:
Type in all cases: cell-based, human
MCF-7 cells [1] = experiment: MTT cytotoxicity assay on MCF-7 cells; settings: for IC50: Homo sapiens, MCF7, MTT, 48 h incubation, IC50 ± SD, three experiments in triplicate; for Selectivity Index (SI): SI = IC50 on MCF-10 cells/IC50 on MCF-7 cells
Method: (§1) In this study, we wondered whether semi-synthetic compounds have potential antitumoral properties against BC. Therefore, we were interested in investigating the effect of the compounds on the MCF-7 cell line. Firstly, we studied the effect on cell viability using a colorimetric MTT assay, which was performed to quantify the cytotoxic activity; each compound was evaluated at different concentrations (500−100−20−4−0.8−0.16−0.032−0 µM). Daunorubicin was also used as a positive control for comparison with a reference drug. […] Although the MCF-10 cell line provides a useful selectivity model, it may not fully represent the varying sensitivities of different normal cell types within a multicellular organism. The SI value indicates the ratio of toxicity in mammalian host cells to that in a tumoral cell. The data obtained in response to different concentrations of compounds were used to calculate the IC50 and corresponding SI values, as shown in Table 1.
(§2) The American Type Culture Collection (Rockville, MD, USA) supplied the following experimental cell lines: MCF-7, a human breast cancer cell line, and MCF-10A, a human epithelial breast cell line (ATCC N° CRL-10317). Both cell lines were grown in DMEM-F12 medium containing 10% FCS, 100 U/mL penicillin, 100 μg/mL streptomycin, and 1 mM glutamine. The cells were seeded at a concentration of 100 μL per well at a plating density of 3 × 10^3 cells/well and incubated for 24 h at 37 °C under 5% humidified CO2 to enable attachment. The cells were then treated with varying concentrations of synthesized compounds for […] under the same conditions. The compound stock solution was prepared in DMSO, and the final concentration of DMSO was kept at 0.1%. Control cultures were treated with only 1% ethanol.
(§3) Cells from the MCF-7 and MCF-10 lines were seeded into 96-well plates at a density of 1 × 10^4 per well. After 24 h, the compounds were added at increasing concentrations (500–100–20-4–0.8–0.16–0.032–0 µM), and the cells were incubated at 37 °C in a humidified 5% CO2/95% air mixture for 48 h. Following incubation, the cells were washed twice with PBS, and 100 μL of 0.5 mg/mL MTT solution was added to each well. After 2 h of incubation, the MTT solution was removed, and the formazan crystals were dissolved in 50 μL of DMSO per well. Absorbance was then measured at 570 nm using a microplate ELISA reader. IC50 values, determined from three independent experiments conducted in triplicate, were calculated using SigmaPlot® software (version 11.0). The selectivity index (SI) of each compound in each cell line was determined by calculating the ratio of the IC50 values for MCF-10 and cancer cell lines. Compounds were considered selective if SI values were equal to or greater than 3 [46].

MCF-10 cells = experiment: MTT cytotoxicity assay on non-tumoral MCF-10 cells; settings: Homo sapiens, MCF10, 48 h incubation, IC50 ± SD, three experiments in triplicate
Method: as §1, §2, §3

MCF-7 cells [2] = experiment: Intracellular ROS generation (DCFH2-DA, flow cytometry); settings: MCF-7, compounds at respective IC50, 24 h, versus control
Method: An increase in intracellular ROS may be one of the factors that contribute to the cytotoxicity of certain compounds in cancer cell lines. In fact, ROS and mitochondrial damage are often associated with the induction of cell death. […] DCF fluorescence was then measured by flow cytometry. The difference in the percentage of DCF-positive cells between treated and control cells was used to indicate an increase in intracellular ROS, as shown in Figure 4.
Reactive oxygen species (ROS) production was measured using flow cytometry. Cells were treated with compounds (each with respective IC50 values) for 24 h, with untreated cells serving as the negative control and cells treated with 1 µM daunorubicin as the positive control. Following the treatment, intracellular ROS levels were visualized after incubation with 2′,7′-dichlorodihydro-fluorescein diacetate (DCFH2-DA) at a final concentration of 10 μM for the last 30 min of the treatment period. After incubation, the cells were washed with PBS, trypsinized, and centrifuged, and the resulting pellet was resuspended in PBS and immediately examined by flow cytometry.
Figure 4 The effect of the compound’s treatment on intracellular ROS generation. Cells were treated with compounds (respective IC50 values for each compound for 24 h), and intracellular ROS levels were determined in the human cancer cell line MCF-7 by flow cytometry using dichloro-fluorescein diacetate (DCFH2-DA). * p < 0.05 versus control cells (Ctrl). The data represent the means ± S.D. of at least three experiments with triplicate samples.

MCF-7 cells [3] = experiment: Mitochondrial membrane potential (rhodamine 123, flow cytometry); settings: MCF-7, compounds at respective IC50, 24 h
Method: To determine whether the toxic effects of selected sesquiterpenes (10c, 11c, 12c, 13c, and 14c) are due to the production of ROS and subsequent apoptosis, the mitochondrial membrane potential was measured. With this aim, a protocol using rhodamine 123 staining and flow cytometry was established to study the effect of the selected compounds [40]. The accumulation of rhodamine 123 in mitochondria is associated with the maintenance of the electrochemical gradient in mitochondria. Daunorubicin was used as a positive control (C+). The results are presented as the percentage of cells with increased mitochondrial membrane permeability.
Rhodamine 123 (Rho123), a positively charged dye that reacts to voltage changes and enters the mitochondria, was utilized to detect modifications in the mitochondrial membrane potential. The cells were exposed to specific compounds (IC50 values for each compound) for 24 h. Control cells that had not been treated were used as negative control, while cells treated with daunorubicin at a concentration of 1 µM served as the positive control. Following this, the cells were incubated with Rho123 (at a concentration of 1 µM) in darkness for an hour at 37 °C. Afterward, the medium was taken out, and the cells were washed with PBS. The cells were then dissociated using trypsin and collected through centrifugation for 10 min at 1500×g. The supernatant was thrown away, and the cell pellets were resuspended in PBS and analyzed using flow cytometry with the FL1 filter. The results are shown as the percentage of Rho123-stained cells.
Figure 5 The effect of the compound’s treatment on mitochondrial membrane potential. […] The data represent the means ± S.D. of at least three experiments with triplicate samples.

Row | mitochondrial membrane permeability (MCF-7 cells [3]) | SMILES | IC50 (MCF-7 cells [1]) | Selectivity Index (SI) (MCF-7 cells [1]) | IC50 (MCF-10 cells) | intracellular ROS levels (DCF fluorescence) (MCF-7 cells [2])
1 | did not increase | COc1ccc(/C=C2\C(C)=CCC3C(C)(C)CCC[C@]23C)cc1OC (stereo partly drawn) [Compound 13c, (4aS)-5-((E)-3,4-Dimethoxybenzylidene)-1,1,4a,6-tetramethyl-1,2,3,4,4a,5,8,8a-octahydronaphthalene] | 22.5 ± 2.6 µM | 6.0 | 135 ± 26.6 µM | significantly increased
2 | did not increase | COc1cc2c(cc1OC)[C@]1(C)CCC3C(C)(C)CCC[C@]3(C)C1=C2 (stereo partly drawn) [Compound 14c, (6aR,11bS)-8,9-Dimethoxy-4,4,6a,11b-tetramethyl-2,3,4,4a,5,6,6a,11b-octahydro-1H-benzo[a]fluorene] | 9 ± 2.8 µM | 44 | 393 ± 47.1 µM | induced oxidative stress; also recorded: significantly increased
